Data set [1] can be described thus: Pharmacokinetics after intravenous (IV) administration, plasma. Type of data set: in vivo, CD1 mice. More on the design: AUClast/D: unit not given here. The following applies: 3 mg/kg IV; for Concentration (ng/mL): plasma. The method, then: Protocol for pharmacokinetic and tissue distribution studies. The pharmacokinetics of the compounds was studied in CD1 mice after intravenous (IV) and oral gavage (PO) administration. Mouse PK studies was conducted at 3 mg/kg (IV) and 8 mg/kg (PO). Plasma samples obtained from dosed animals, at ten time points, including 5, 15 and 30 minutes and 1, 1.5, 2, 4, 6, 8 and 24 hr post-dose for processing to plasma, were prepared for analysis by means of a single step protein precipitation technique, by adding 200 μL of acetonitrile containing an IS mixture (labetalol, imipramine and diclofenac) to 50 μL aliquots of individual subject samples. Samples were mixed by vortex for homogeneity and then subjected to centrifugation at 4000 rpm for 10 min. The supernatant (200 μL) was collected and injected into the LC-MS/MS for analysis. Pharmacokinetic parameters will be calculated using established non-compartmental methods. The liver distribution of the compounds was studied in the PO group and liver tissues were collected at each time point after PO administration. Accurately weighed whole liver tissues were collected in a 50 mL tube, and 3 volumes per weight of water will be added. Tissue samples were homogenized and 50 μL of the homogenates will be processed along with plasma samples as described above.

Another data set concerns the target T1, OATP1B3 (Homo sapiens, UniProt Q9NPD5).
T1 construct: expressed in transfected cells; host or cells: HEK293
T1 sequence (Q9NPD5 1-702): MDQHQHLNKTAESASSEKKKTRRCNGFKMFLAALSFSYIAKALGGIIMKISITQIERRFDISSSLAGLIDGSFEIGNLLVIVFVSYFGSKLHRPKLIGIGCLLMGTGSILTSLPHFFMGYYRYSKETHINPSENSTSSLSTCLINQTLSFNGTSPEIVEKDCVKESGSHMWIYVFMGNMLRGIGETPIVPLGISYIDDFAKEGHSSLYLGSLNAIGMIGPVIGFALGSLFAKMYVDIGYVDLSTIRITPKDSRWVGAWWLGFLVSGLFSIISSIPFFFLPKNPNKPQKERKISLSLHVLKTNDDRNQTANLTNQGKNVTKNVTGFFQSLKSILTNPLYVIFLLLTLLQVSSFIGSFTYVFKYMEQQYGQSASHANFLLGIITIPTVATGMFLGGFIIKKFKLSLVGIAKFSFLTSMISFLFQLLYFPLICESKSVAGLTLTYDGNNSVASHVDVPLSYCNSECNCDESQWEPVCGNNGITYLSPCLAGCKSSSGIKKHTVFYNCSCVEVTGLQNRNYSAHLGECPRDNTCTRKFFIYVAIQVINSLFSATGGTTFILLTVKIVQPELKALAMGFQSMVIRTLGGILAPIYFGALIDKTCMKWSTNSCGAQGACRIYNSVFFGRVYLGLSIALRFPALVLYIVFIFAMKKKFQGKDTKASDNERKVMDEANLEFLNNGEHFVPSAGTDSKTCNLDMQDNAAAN
Kind of data set: OATP1B3 transporter substrate uptake in OATP1B3-HEK293 cells. Type of data set: in vitro ADME. How it is done:
(§1) Protocol for identification of compounds that are substrates of transporters OATPIBI and OATPIB3. Transfected HEK293 and vector control HEK293 cells were cultured in 24-well poly-D-lysine or collagen-coated tissue culture plates ([…]) for 2 and 10 minutes respectively in transport buffer (HBSSg, pH 7.4, pre-warmed to 37° C.). At a defined time point, the uptake experiments were stopped by removing dosing solution followed by two washes of ice-cold HBSSg buffer. The cells were lysed for 2 minutes with 75% ACN containing an appropriate internal standard (when available). Lysis buffer were chilled to −20° C., and the plate was kept on ice during lysis. The cell lysate was transferred into a 96-well plate for sample analysis with LC-MS/MS analysis to determine concentration of test compound in cell lysate. The uptake of test compounds was normalized by total cell protein using the BCA Protein Assay Kit following the manufacturer's protocol. The inhibitor Rifamycin SV was used to block OATP1B1 and OATP1B3 transporter activity in order to determine uptake ratios.

For another data set, the target named is T2, OATP1B1 (Homo sapiens, UniProt Q9Y6L6).
T2 construct: expressed in transfected cells; host or cells: HEK293
T2 sequence (Q9Y6L6 1-691): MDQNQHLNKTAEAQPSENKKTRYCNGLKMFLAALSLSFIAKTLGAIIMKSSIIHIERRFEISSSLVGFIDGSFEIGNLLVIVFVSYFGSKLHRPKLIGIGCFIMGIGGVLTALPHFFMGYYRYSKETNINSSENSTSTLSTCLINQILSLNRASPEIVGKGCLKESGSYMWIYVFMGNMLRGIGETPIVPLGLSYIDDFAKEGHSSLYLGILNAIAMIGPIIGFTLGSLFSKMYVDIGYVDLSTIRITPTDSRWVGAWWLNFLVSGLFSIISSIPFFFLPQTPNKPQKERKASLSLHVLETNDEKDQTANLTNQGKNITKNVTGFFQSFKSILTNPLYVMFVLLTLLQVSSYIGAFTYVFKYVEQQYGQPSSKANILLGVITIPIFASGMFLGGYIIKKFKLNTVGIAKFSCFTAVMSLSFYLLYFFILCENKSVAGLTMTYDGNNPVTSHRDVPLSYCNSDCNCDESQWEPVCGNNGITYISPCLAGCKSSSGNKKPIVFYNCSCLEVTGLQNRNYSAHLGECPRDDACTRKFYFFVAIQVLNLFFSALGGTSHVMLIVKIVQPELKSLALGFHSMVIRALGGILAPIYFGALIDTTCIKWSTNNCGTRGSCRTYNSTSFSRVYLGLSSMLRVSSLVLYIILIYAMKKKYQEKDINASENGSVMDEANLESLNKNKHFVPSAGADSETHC
Briefly: OATP1B1 transporter substrate uptake in OATP1B1-HEK293 cells. Type of data set: in vitro ADME. How it is done: as §1

“And” between values parts separate entries of the source, which are not always exact repeats. Equal values may be shown once.

As for `COc1cc2c(cc1OCCCCCCC(=O)O)C[C@@H](C(C)C)n1cc(C(=O)O)c(=O)cc1-2` [Example 6, (S)-9-((6-carboxyhexyl)oxy)-6-isopropyl-10-methoxy-2-oxo-6,7-dihydro-2H-pyrido[2,1-a]isoquinoline-3-carboxylic acid], the “AUC—% Extrap —obs” value in data set [1] (individual mice) is 1.59% and 1.03% and 0.662%; in data set [1] (mean) it was 1.09%. The Cl_obs in data set [1] (individual mice) was 187 mL/min/kg and 166 mL/min/kg and 242 mL/min/kg; in data set [1] (mean), 198 mL/min/kg. Also, the AUClast/D in data set [1] (mean) stood at 85.1. Further, in data set [1] (mean), the C0 worked out at 2568 ng/mL. The “Concentration (ng/mL)” value is reported as “BLOQ” in data set [1] (4 h, individual mice); “BLOQ” in data set [1] (8 h, individual mice); “BLOQ” in data set [1] (24 h, individual mice). Also, the “Uptake Ratio (−/+Inhibitor)” value is 11.57 on OATP1B3 (OATP1B3-HEK293 cells, test concentration 1 μM, inhibitor Rifamycin SV) and 11.17 at OATP1B1 (OATP1B1-HEK293 cells, test concentration 1 μM, inhibitor Rifamycin SV). For the same compound, the “Uptake Ratio (Transporter(−Inhibitor)/Mock(−Inhibitor))” value on OATP1B3 (OATP1B3-HEK293 vs mock HEK293, test concentration 1 μM) is listed as 24.80; at OATP1B1 (OATP1B1-HEK293 vs mock HEK293, test concentration 1 μM), 18.99.

For the origin of these results see patent US20260274836A1, “NOVEL HEPATOSELECTIVE POLYADENYLATING POLYMERASES INHIBITORS AND THEIR METHOD OF USE” (Baruch S. Blumberg Institute, priority 2022, published 2026).
